Laboratory results reported in US20150259300A1, “4-(ORTHO)-FLUOROPHENYL-5-FLUOROPYRIMIDIN-2-YL AMINES CONTAINING A SULFONE GROUP” (BAYER PHARMA AKTIENGESELLSCHAFT, priority 2012, published 2015).

What was measured:
CDK9/CycT1 = target: T1, CDK9/CycT1 (Homo sapiens, UniProt P50750); assay: CDK9/CycT1 high ATP kinase assay (TR-FRET, Method 1b); format: biochemical; details: 2 mM ATP
T1 construct: Recombinant full-length His-tagged human CDK9 and CycT1; His; purchased Invitrogen PV4131; host or cells: insect cells
T1 sequence (P50750 whole entry): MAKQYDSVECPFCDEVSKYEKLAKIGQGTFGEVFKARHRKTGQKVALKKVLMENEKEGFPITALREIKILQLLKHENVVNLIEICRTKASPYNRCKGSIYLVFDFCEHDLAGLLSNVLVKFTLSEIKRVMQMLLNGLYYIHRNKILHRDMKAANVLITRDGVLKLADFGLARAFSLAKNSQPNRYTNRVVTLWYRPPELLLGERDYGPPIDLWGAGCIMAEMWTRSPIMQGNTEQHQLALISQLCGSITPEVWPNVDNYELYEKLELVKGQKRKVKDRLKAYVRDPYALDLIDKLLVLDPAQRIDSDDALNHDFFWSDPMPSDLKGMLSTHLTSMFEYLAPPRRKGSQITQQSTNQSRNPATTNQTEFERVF
T1 sequence (O60563 whole entry partner): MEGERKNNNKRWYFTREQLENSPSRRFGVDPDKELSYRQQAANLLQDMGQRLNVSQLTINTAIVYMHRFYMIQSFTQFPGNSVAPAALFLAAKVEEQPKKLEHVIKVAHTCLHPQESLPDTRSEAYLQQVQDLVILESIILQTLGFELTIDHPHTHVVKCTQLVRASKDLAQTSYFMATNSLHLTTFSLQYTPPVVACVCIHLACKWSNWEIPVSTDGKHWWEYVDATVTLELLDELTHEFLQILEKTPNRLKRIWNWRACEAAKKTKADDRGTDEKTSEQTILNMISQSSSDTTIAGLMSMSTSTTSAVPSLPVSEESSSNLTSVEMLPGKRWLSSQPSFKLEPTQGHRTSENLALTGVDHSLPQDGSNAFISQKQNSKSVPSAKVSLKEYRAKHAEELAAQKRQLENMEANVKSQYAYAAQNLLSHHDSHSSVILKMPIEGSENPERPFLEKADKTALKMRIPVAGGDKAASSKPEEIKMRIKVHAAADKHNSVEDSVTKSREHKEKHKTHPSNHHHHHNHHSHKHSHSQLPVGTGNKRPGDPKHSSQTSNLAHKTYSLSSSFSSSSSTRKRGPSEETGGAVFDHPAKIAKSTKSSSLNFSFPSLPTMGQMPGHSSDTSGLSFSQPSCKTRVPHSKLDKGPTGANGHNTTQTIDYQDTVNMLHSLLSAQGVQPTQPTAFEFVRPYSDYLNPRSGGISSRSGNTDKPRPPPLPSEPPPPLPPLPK
Experimental: 1b. CDK9/CyeT1 High ATP Kinase Assay
CDK9/CycT1-inhibitory activity of compounds of the present invention at a high ATP concentration after preincubation of enzyme and test compounds was quantified employing the CDK9/CycT1 TR-FRET assay as described in the following paragraphs.
Recombinant full-length His-tagged human CDK9 and CycT1, expressed in insect cells and purified by Ni-NTA affinity chromatography, were purchase from Invitrogen (Cat. No PV4131). As substrate for the kinase reaction biotinylated peptide biotin-Ttds-YISPLKSPYKISEG (C-terminus in amid form) was used which can be purchased e.g. form the company JERINI peptide technologies (Berlin, Germany).
For the assay 50 nl of a 100 fold concentrated solution of the test compound in DMSO was pipetted into a black low volume 384 well microtiter plate (Greiner Bio-One, Frickenhausen, Germany), 2 μl of a solution of CDK9/CycT1 in aqueous assay buffer [50 mM Tris/HCl pH 8.0, 10 mM MgCl2, 1.0 mM dithiothreitol, 0.1 mM sodium ortho-vanadate, 0.01% (v/v) Nonidet-P40 (Sigma)] were added and the mixture was incubated for […] at 22° C. to allow pre-binding of the test compounds to the enzyme before the start of the kinase reaction. Then the kinase reaction was started by the addition of 3 μl of a solution of adenosine-tri-phosphate (ATP, 3.3 mM=>final conc. in the 5 μl assay volume is 2 mM) and substrate (1.67 μM=>final conc. in the 5 μl assay volume is 1 μM) in assay buffer and the resulting mixture was incubated for a reaction time of […] at 22° C. The concentration of CDK9/CycT1 was adjusted depending of the activity of the enzyme lot and was chosen appropriate to have the assay in the linear range, typical concentrations were in the range of 0.5 ng/ml. The reaction was stopped by the addition of 5 μl of a solution of TR-FRET detection reagents ([…] streptavidine-XL665 [Cisbio Bioassays, Codolet, France] and 1 nM anti-RB(pSer807/pSer811)-antibody from BD Pharmingen [#558389] and 1.2 nM LANCE EU-W1024 labeled anti-mouse IgG antibody [Perkin-Elmer, product no. AD0077]) in an aqueous EDTA-solution (100 mM EDTA, 0.2% (w/v) bovine serum albumin in 100 mM HEPES/NaOH pH 7.0).
The resulting mixture was incubated 1 h at 22° C. to allow the formation of complex between the phosphorylated biotinylated peptide and the detection reagents. Subsequently the amount of phosphorylated substrate was evaluated by measurement of the resonance energy transfer from the Eu-chelate to the streptavidine-XL. Therefore, the fluorescence emissions at 620 nm and 665 nm after excitation at 350 nm was measured in a HTRF reader, e.g. a Rubystar (BMG Labtechnologies, Offenburg, Germany) or a Viewlux (Perkin-Elmer). The ratio of the emissions at 665 nm and at […] was taken as the measure for the amount of phosphorylated substrate. The data were normalised (enzyme reaction without inhibitor=0% inhibition, all other assay components but no enzyme=100% inhibition).

HeLa cells = assay: Proliferation assay (crystal violet), HeLa; format: cell-based; details: Homo sapiens, 96 h, 4 days, read-out: Inhibition of HeLa cell proliferation IC50
Experimental: Cultivated tumour cells (HeLa, human cervical tumour cells, ATCC CCL-2; NCI-H460, human non-small cell lung carcinoma cells, ATCC HTB-177; A2780, human ovarian carcinoma cells, ECACC #93112519; DU 145, hormone-independent human prostate carcinoma cells, ATCC HTB-81; HeLa-MaTu-ADR, multidrug-resistant human cervical carcinoma cells, EPO-GmbH Berlin; Caco-2, human colorectal carcinoma cells, ATCC HTB-37; B 16F10, mouse melanoma cells, ATCC CRL-6475) were plated at a density of 5,000 cells/well (DU145, HeLa-MaTu-ADR), 3,000 cells/well (NCI-H460, HeLa), 2,500 cells/well (A2780), 1,500 cells/well (Caco-2), or 1,000 cells/well (B16F10) in a 96-well multititer plate in 200 μL of their respective growth medium supplemented 10% fetal calf serum. After 24 hours, the cells of one plate (zero-point plate) were stained with crystal violet (see below), while the medium of the other plates was replaced by fresh culture medium (200 to which the test substances were added in various concentrations (0 μM, as well as in the range of 0.001-10 μM; the final concentration of the solvent dimethyl sulfoxide was 0.5%). The cells were incubated for 4 days in the presence of test substances. Cell proliferation was determined by staining the cells with crystal violet: the cells were fixed by adding 20 μl/measuring point of an 11% glutaric aldehyde solution for 15 minutes at room temperature. After three washing cycles of the fixed cells with water, the plates were dried at room temperature. The cells were stained by adding 100 μl/measuring point of a 0.1% crystal violet solution (pH 3.0). After three washing cycles of the stained cells with water, the plates were dried at room temperature. The dye was dissolved by adding 100 μl/measuring point of a 10% acetic acid solution. The extinction was determined by photometry at a wavelength of 595 nm. The change of cell number, in percent, was calculated by normalization of the measured values to the extinction values of the zero-point plate (=0%) and the extinction of the untreated (0 μm) cells (=100%). The IC50 values (inhibitory concentration at 50% of maximal effect) were determined by means of a 4 parameter fit.

| SMILES | IC50 (CDK9/CycT1) [µM] | IC50 (HeLa cells) [µM] |
| --- | --- | --- |
| CC(C)S(=O)(=O)Cc1cccc(Nc2ncc(F)c(-c3ccc(F)cc3F)n2)c1 [Example 2, 4-(2,4-Difluorophenyl)-5-fluoro-N-{3-[(propan-2-ylsulfonyl)methyl]phenyl}pyrimidin-2-amine] | 2.26 | 3 |
| CC(C)(C)S(=O)(=O)Cc1cccc(Nc2ncc(F)c(-c3ccc(F)cc3F)n2)c1 [Example 3, N-{3-[(tert-Butylsulfonyl)methyl]phenyl}-4-(2,4-difluorophenyl)-5-fluoropyrimidin-2-amine] | 14.5 | 3 |
| COCCS(=O)(=O)Cc1cccc(Nc2ncc(F)c(-c3ccc(F)cc3F)n2)c1 [Example 4, 4-(2,4-Difluorophenyl)-5-fluoro-N-(3-{[(2-methoxyethyl)sulfonyl]methyl}phenyl)pyrimidin-2-amine] | 2.26 | – |
| CCCS(=O)(=O)Cc1cccc(Nc2ncc(F)c(-c3ccc(F)cc3F)n2)c1 [Example 8, 4-(2,4-difluorophenyl)-5-fluoro-N-{3-[(propylsulfonyl)methyl]phenyl}pyrimidin-2-amine] | 0.904 | 3 |
| CS(=O)(=O)Cc1cc(F)cc(Nc2ncc(F)c(-c3ccc(F)cc3F)n2)c1 [Example 10, 4-(2,4-Difluorophenyl)-5-fluoro-N-{3-fluoro-5-[(methylsulfonyl)methyl]phenyl}pyrimidin-2-amine] | 2.28 | 3 |
| CS(=O)(=O)Cc1cc(F)cc(Nc2ncc(F)c(-c3cc(F)c(F)cc3F)n2)c1 [Example 11, 5-Fluoro-N-{3-fluoro-5-[(methylsulfonyl)methyl]phenyl}-4-(2,4,5-trifluorophenyl)pyrimidin-2-amine] | > 20 | 2.96 |
| CCCS(=O)(=O)Cc1cc(F)cc(Nc2ncc(F)c(-c3ccc(F)cc3F)n2)c1 [Example 13, 4-(2,4-Difluorophenyl)-5-fluoro-N-{3-fluoro-5-[(propylsulfonyl)methyl]phenyl}pyrimidin-2-amine] | 2.28 | 3 |

Now those with a lower IC50 (CDK9/CycT1), led by results:

| IC50 (CDK9/CycT1) [µM] | IC50 (HeLa cells) [µM] | SMILES |
| --- | --- | --- |
| 0.858 | – | CS(=O)(=O)Cc1cccc(Nc2ncc(F)c(-c3ccc(F)cc3F)n2)c1 [Example 5, 4-(2,4-Difluorophenyl)-5-fluoro-N-{3-[(methylsulfonyl)methyl]phenyl}pyrimidin-2-amine] |
| 0.33 | 3 | O=S(=O)(Cc1cccc(Nc2ncc(F)c(-c3ccc(F)cc3F)n2)c1)C1CC1 [Example 9, N-{3-[(Cyclopropylsulfonyl)methyl]phenyl}-4-(2,4-difluorophenyl)-5-fluoropyrimidin-2-amine] |
| 0.271 | 1 | CS(=O)(=O)Cc1cc(F)cc(Nc2ncc(F)c(-c3ccc(F)c(F)c3F)n2)c1 [Example 12, 5-fluoro-N-{3-fluoro-5-[(methylsulfonyl)methyl]phenyl}-4-(2,3,4-trifluorophenyl)pyrimidin-2-amine] |
| 0.099 | 0.617 | CS(=O)(=O)Cc1cc(Nc2ncc(F)c(-c3ccc(F)cc3F)n2)cc(S(F)(F)(F)(F)F)c1 [Example 6, 4-(2,4-Difluorophenyl)-5-fluoro-N-{3-[(methylsulfonyl)methyl]-5-(pentafluoro-λ^6-sulfanyl)phenyl}pyrimidin-2-amine] |
